“And” between values parts separate entries of the source, which are not always exact repeats. Identical values can stand only once.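 Method: 48-hour compound exposure of cells in 96-well plates, five concentrations, linear interpolation of endpoints. GI50 = concentration required for 50% inhibition of growth. TGI denotes the concentration required for complete inhibition of growth.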

Common to all, as to experiment: NCI tumour cell line growth inhibition, 48 h
Assay [1] has as its system DLD-1 colon.
The subject of assay [2] is DMS 114 small cell lung.
Assay [3] has as its system DMS 273 small cell lung.
The test system of assay [4] is HOP-18 NSCLC.
The subject of assay [5] is LXFL 529 NSCLC.
The test system of assay [6] is M19-MEL melanoma.
Assay [7] deals with RXF-631 renal.
Assay [8] concerns XF 498 CNS.
In assay [9] the test system is P388 leukemia.

For `CC(C)(C)C1CCC(=O)C(C(O)CC2CC(=O)N(c3ccccc3)C(=O)C2)C1` (stereo not drawn), the TGI in assay [1], in [2], in assay [3], in assay [4], in assay [5] and in assay [6] was over 100 µM in each case. Further, the TGI in [7] and in [8] was over 100 µM throughout.
Regarding `CCOC(=O)NC(=O)c1cn(C2OC(COC(=O)CCCCCCCCC(=O)OCC3OC(n4cc(C(=O)NC(=O)OCC)c(=O)[nH]c4=O)C4OC(C)(C)OC34)C3OC(C)(C)OC32)c(=O)[nH]c1=O` (stereo not drawn), the TGI in assay [1] is over 100 µM; in assay [2] it was over 100 µM; in assay [3], over 100 µM; in [4], over 100 µM; in assay [5], over 100 µM; in assay [6], 86.2 µM. Also, the TGI in assay [7] and in [8] was over 100 µM each time.
Consider `CSC1SCC2C(=O)N(C)C(C(C)C)C(=O)OCC(NC(=O)c3cnc4ccccc4n3)C(=O)NC(C)C(=O)N(C)C1C(=O)N(C)C(C(C)C)C(=O)OCC(NC(=O)c1cnc3ccccc3n1)C(=O)NC(C)C(=O)N2C` (stereo not drawn), for which the GI50 in assay [1] is 0.0184 nM; in assay [2] it was 3.45 pM; in assay [3] it was 0.04 nM; in assay [4], 9.66 pM; in [9], 4.99 pM; in assay [8] it was 0.0306 nM. Moreover, the TGI in [1] was 1.08 µM and 5.93 µM; in assay [2], 8.38e-06 µM; in assay [8], 5.67e-05 µM.
As for `N/C(=N\N=C\c1ccc(O)c(O)c1)NO`, the TGI in assay [1], in assay [2], in [3], in assay [4], in [5] and in [6] was over 100 µM throughout. The TGI in [7] and in [8] was over 100 µM in each case.

Values taken from PubChem BioAssay (NCI).
